Source: patent US20150105252A1, “SUBSTITUTED PYRAZOLES AS HERBICIDES” (E I DU PONT DE NEMOURS AND COMPANY, priority 2013, published 2015)

Columns and labels:
Experiment in all cases: Test C postemergence
morningglory = format: in vivo, Ipomoea coccinea; conditions: for Plant response rating (scale of 0 to 100 where 0 is no effect and 100 is complete control), Morningglory: Postemergence, 31 g ai/ha, visually evaluated after 13 to 15 days; for Morningglory plant response rating / Plant response rating, Morningglory: postemergence; for Morningglory plant response rating: 62 g ai/ha, scale 0 to 100
How it was run: (§1)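 Greenhouse pot test: preemergence application onto freshly seeded loam/sand mix, postemergence application onto seedlings (1–4 leaves, 2–18 cm) in peat-vermiculite substrate. Responses scored visually 13 to 15 days later relative to controls, where 0 means no effect and 100 means complete control; a dash indicates no result.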

corn = format: in vivo, Zea mays; conditions: for Plant response rating (scale of 0 to 100 where 0 is no effect and 100 is complete control), Corn: Postemergence, 31 g ai/ha, visually evaluated after 13 to 15 days; for Corn plant response rating / Plant response rating, Corn: postemergence; for Corn plant response rating: 62 g ai/ha, scale 0 to 100
How it was run: as §1

velvetleaf = format: in vivo, Abutilon theophrasti; conditions: postemergence; for Plant response rating, Velvetleaf: 250 g ai/ha, scale 0 to 100 (0 no effect, 100 complete control); for Velvetleaf plant response rating: scale 0 to 100
How it was run: as §1

ryegrass, Italian = format: in vivo, Lolium multiflorum; conditions: postemergence
How it was run: as §1

oilseed rape = format: in vivo, Brassica napus; conditions: postemergence; for Oilseed Rape plant response rating: 62 g ai/ha, scale 0 to 100
How it was run: as §1

kochia = format: in vivo, Kochia scoparia; conditions: for Plant response rating (scale of 0 to 100 where 0 is no effect and 100 is complete control), Kochia: Postemergence, 31 g ai/ha, visually evaluated after 13 to 15 days; for Kochia plant response rating / Plant response rating, Kochia: postemergence; for Kochia plant response rating: 62 g ai/ha, scale 0 to 100
How it was run: as §1

galium = format: in vivo, Galium aparine; conditions: for Plant response rating (scale of 0 to 100 where 0 is no effect and 100 is complete control), Galium: Postemergence, 31 g ai/ha, visually evaluated after 13 to 15 days; for Galium plant response rating / Plant response rating, Galium: postemergence; for Galium plant response rating: 62 g ai/ha, scale 0 to 100
How it was run: as §1

waterhemp = format: in vivo, Amaranthus rudis; conditions: postemergence; for Plant response rating, Waterhemp: 250 g ai/ha, scale 0 to 100 (0 no effect, 100 complete control)
How it was run: as §1

pigweed = format: in vivo, Amaranthus retroflexus; conditions: postemergence; for Pigweed plant response rating: 62 g ai/ha, scale 0 to 100
How it was run: as §1

lambsquarters = format: in vivo, Chenopodium album; conditions: for Plant response rating (scale of 0 to 100 where 0 is no effect and 100 is complete control), Lambsquarters: Postemergence, 31 g ai/ha, visually evaluated after 13 to 15 days; for Lambsquarters plant response rating / Plant response rating, Lambsquarters: postemergence; for Lambsquarters plant response rating: 62 g ai/ha, scale 0 to 100
How it was run: as §1

wheat = format: in vivo, Triticum aestivum; conditions: postemergence; for Plant response rating, Wheat: 250 g ai/ha, scale 0 to 100 (0 no effect, 100 complete control); for Wheat plant response rating: scale 0 to 100
How it was run: as §1

soybean = format: in vivo, Glycine max; conditions: postemergence; for Plant response rating, Soybean: 250 g ai/ha, scale 0 to 100 (0 no effect, 100 complete control); for Soybean plant response rating: 125 g ai/ha, scale 0 to 100, 0 no effect, 100 complete control
How it was run: as §1

nutsedge, yellow = format: in vivo, Cyperus esculentus; conditions: for Plant response rating (scale of 0 to 100 where 0 is no effect and 100 is complete control), Nutsedge, Yellow: Postemergence, 31 g ai/ha, visually evaluated after 13 to 15 days; for Nutsedge, Yellow plant response rating / Plant response rating, Nutsedge, Yellow: postemergence; for Nutsedge, Yellow plant response rating: 62 g ai/ha, scale 0 to 100
How it was run: as §1

foxtail, giant = format: in vivo, Setaria faberii; conditions: for Plant response rating (scale of 0 to 100 where 0 is no effect and 100 is complete control), Foxtail, Giant: Postemergence, 31 g ai/ha, visually evaluated after 13 to 15 days; for Foxtail, Giant plant response rating / Plant response rating, Foxtail, Giant: postemergence; for Foxtail, Giant plant response rating: 62 g ai/ha, scale 0 to 100
How it was run: as §1

chickweed = format: in vivo, Stellaria media; conditions: for Plant response rating (scale of 0 to 100 where 0 is no effect and 100 is complete control), Chickweed: Postemergence, 31 g ai/ha, visually evaluated after 13 to 15 days; for Chickweed plant response rating / Plant response rating, Chickweed: postemergence; for Chickweed plant response rating: 62 g ai/ha, scale 0 to 100
How it was run: as §1

johnsongrass = format: in vivo, Sorghum halepense; conditions: for Plant response rating (scale of 0 to 100 where 0 is no effect and 100 is complete control), Johnsongrass: Postemergence, 31 g ai/ha, visually evaluated after 13 to 15 days; for Johnsongrass plant response rating / Plant response rating, Johnsongrass: postemergence; for Johnsongrass plant response rating: 62 g ai/ha, scale 0 to 100
How it was run: as §1

blackgrass = format: in vivo, Alopecurus myosuroides; conditions: for Plant response rating (scale of 0 to 100 where 0 is no effect and 100 is complete control), Blackgrass: Postemergence, 31 g ai/ha, visually evaluated after 13 to 15 days; for Blackgrass plant response rating / Plant response rating, Blackgrass: postemergence; for Blackgrass plant response rating: 62 g ai/ha, scale 0 to 100
How it was run: as §1

[1] = 250 g ai/ha, scale 0 to 100 (0 no effect, 100 complete control)
[2] = 125 g ai/ha, scale 0 to 100, 0 no effect, 100 complete control

CCCNC(=O)c1cc(CCC)n(Cc2cc(C(F)(F)F)nn2C)n1 [Compound 198]
Plant response rating (scale of 0 to 100 where 0 is no effect and 100 is complete control), Morningglory (morningglory): 95
Morningglory plant response rating (morningglory): 60
Plant response rating, Morningglory (morningglory; [1]): 98
Plant response rating, Morningglory (morningglory; [2]): 98
Plant response rating (scale of 0 to 100 where 0 is no effect and 100 is complete control), Corn (corn): 5
Corn plant response rating (corn): 10
Plant response rating, Corn (corn; [1]): 15
Plant response rating, Corn (corn; [2]): 10
Plant response rating, Velvetleaf (velvetleaf): 50
Velvetleaf plant response rating (velvetleaf): 40
Plant response rating, Ryegrass, Italian (ryegrass, Italian; [1]): 5
Plant response rating, Ryegrass, Italian (ryegrass, Italian; [2]): 5
Oilseed Rape plant response rating (oilseed rape): 50
Plant response rating, Oilseed Rape (oilseed rape; [1]): 60
Plant response rating, Oilseed Rape (oilseed rape; [2]): 70
Plant response rating (scale of 0 to 100 where 0 is no effect and 100 is complete control), Kochia (kochia): 80
Kochia plant response rating (kochia): 80
Plant response rating, Kochia (kochia; [1]): 90
Plant response rating, Kochia (kochia; [2]): 85
Plant response rating (scale of 0 to 100 where 0 is no effect and 100 is complete control), Galium (galium): 50
Galium plant response rating (galium): 85
Plant response rating, Galium (galium; [1]): 90
Plant response rating, Galium (galium; [2]): 85
Plant response rating, Waterhemp (waterhemp): 90
Pigweed plant response rating (pigweed): 60
Plant response rating, Pigweed (pigweed; [1]): 90
Plant response rating, Pigweed (pigweed; [2]): 80
Plant response rating (scale of 0 to 100 where 0 is no effect and 100 is complete control), Lambsquarters (lambsquarters): 20
Lambsquarters plant response rating (lambsquarters): 50
Plant response rating, Lambsquarters (lambsquarters; [1]): 85
Plant response rating, Lambsquarters (lambsquarters; [2]): 75
Plant response rating, Wheat (wheat): 10
Wheat plant response rating (wheat): 5
Plant response rating, Soybean (soybean): 95
Soybean plant response rating (soybean): 95
Plant response rating (scale of 0 to 100 where 0 is no effect and 100 is complete control), Nutsedge, Yellow (nutsedge, yellow): 5
Nutsedge, Yellow plant response rating (nutsedge, yellow): 10
Plant response rating, Nutsedge, Yellow (nutsedge, yellow; [1]): 5
Plant response rating, Nutsedge, Yellow (nutsedge, yellow; [2]): 5
Plant response rating (scale of 0 to 100 where 0 is no effect and 100 is complete control), Foxtail, Giant (foxtail, giant): 10
Foxtail, Giant plant response rating (foxtail, giant): 10
Plant response rating, Foxtail, Giant (foxtail, giant; [1]): 55
Plant response rating, Foxtail, Giant (foxtail, giant; [2]): 15
Plant response rating (scale of 0 to 100 where 0 is no effect and 100 is complete control), Chickweed (chickweed): 70
Chickweed plant response rating (chickweed): 70
Plant response rating, Chickweed (chickweed; [1]): 80
Plant response rating, Chickweed (chickweed; [2]): 80
Plant response rating (scale of 0 to 100 where 0 is no effect and 100 is complete control), Johnsongrass (johnsongrass): 5
Johnsongrass plant response rating (johnsongrass): 5
Plant response rating, Johnsongrass (johnsongrass; [1]): 10
Plant response rating, Johnsongrass (johnsongrass; [2]): 5
Plant response rating (scale of 0 to 100 where 0 is no effect and 100 is complete control), Blackgrass (blackgrass): 0
Blackgrass plant response rating (blackgrass): 20
Plant response rating, Blackgrass (blackgrass; [1]): 30
Plant response rating, Blackgrass (blackgrass; [2]): 40

CCc1cc(C(=O)NCC(F)(F)F)nn1Cc1cc(OC(F)F)nn1C [Compound 206]
Plant response rating (scale of 0 to 100 where 0 is no effect and 100 is complete control), Morningglory (morningglory): 40
Morningglory plant response rating (morningglory): 40
Plant response rating, Morningglory (morningglory; [1]): 65
Plant response rating, Morningglory (morningglory; [2]): 60
Plant response rating (scale of 0 to 100 where 0 is no effect and 100 is complete control), Corn (corn): 5
Corn plant response rating (corn): 5
Plant response rating, Corn (corn; [1]): 5
Plant response rating, Corn (corn; [2]): 5
Plant response rating, Velvetleaf (velvetleaf): 10
Velvetleaf plant response rating (velvetleaf): 10
Plant response rating, Ryegrass, Italian (ryegrass, Italian; [1]): 0
Plant response rating, Ryegrass, Italian (ryegrass, Italian; [2]): 0
Oilseed Rape plant response rating (oilseed rape): 5
Plant response rating, Oilseed Rape (oilseed rape; [1]): 50
Plant response rating, Oilseed Rape (oilseed rape; [2]): 5
Plant response rating (scale of 0 to 100 where 0 is no effect and 100 is complete control), Kochia (kochia): 30
Kochia plant response rating (kochia): 35
Plant response rating, Kochia (kochia; [1]): 75
Plant response rating, Kochia (kochia; [2]): 45
Plant response rating (scale of 0 to 100 where 0 is no effect and 100 is complete control), Galium (galium): 30
Galium plant response rating (galium): 30
Plant response rating, Galium (galium; [1]): 45
Plant response rating, Galium (galium; [2]): 60
Plant response rating, Waterhemp (waterhemp): 45
Waterhemp plant response rating (waterhemp; scale 0 to 100): 35
Pigweed plant response rating (pigweed): 25
Plant response rating, Pigweed (pigweed; [1]): 40
Plant response rating, Pigweed (pigweed; [2]): 40
Plant response rating (scale of 0 to 100 where 0 is no effect and 100 is complete control), Lambsquarters (lambsquarters): 10
Lambsquarters plant response rating (lambsquarters): 10
Plant response rating, Lambsquarters (lambsquarters; [1]): 30
Plant response rating, Lambsquarters (lambsquarters; [2]): 15
Plant response rating, Wheat (wheat): 0
Wheat plant response rating (wheat): 0
Plant response rating, Soybean (soybean): 35
Soybean plant response rating (soybean): 45
Plant response rating (scale of 0 to 100 where 0 is no effect and 100 is complete control), Nutsedge, Yellow (nutsedge, yellow): 0
Nutsedge, Yellow plant response rating (nutsedge, yellow): 0
Plant response rating, Nutsedge, Yellow (nutsedge, yellow; [1]): 0
Plant response rating, Nutsedge, Yellow (nutsedge, yellow; [2]): 0
Plant response rating (scale of 0 to 100 where 0 is no effect and 100 is complete control), Foxtail, Giant (foxtail, giant): 15
Foxtail, Giant plant response rating (foxtail, giant): 5
Plant response rating, Foxtail, Giant (foxtail, giant; [1]): 5
Plant response rating, Foxtail, Giant (foxtail, giant; [2]): 5
Plant response rating (scale of 0 to 100 where 0 is no effect and 100 is complete control), Chickweed (chickweed): 5
Chickweed plant response rating (chickweed): 5
Plant response rating, Chickweed (chickweed; [1]): 75
Plant response rating, Chickweed (chickweed; [2]): 5
Plant response rating (scale of 0 to 100 where 0 is no effect and 100 is complete control), Johnsongrass (johnsongrass): 0
Johnsongrass plant response rating (johnsongrass): 0
Plant response rating, Johnsongrass (johnsongrass; [1]): 5
Plant response rating, Johnsongrass (johnsongrass; [2]): 5
Plant response rating (scale of 0 to 100 where 0 is no effect and 100 is complete control), Blackgrass (blackgrass): 0
Blackgrass plant response rating (blackgrass): 0
Plant response rating, Blackgrass (blackgrass; [1]): 5
Plant response rating, Blackgrass (blackgrass; [2]): 5
